Reference: PMC8536124 (International Journal of Molecular Sciences, 2021)
Marks after values point to notes of the source that are not given here.

How the values were obtained:
[1] = system: NCI-H522; assay: NCI-60 screening (SRB); type: cell-based, human; conditions: five-dose
[2] = system: MDA-MB-31/ATCC; assay: NCI-60 screening (SRB); type: cell-based, human; conditions: five-dose
[3] = system: BAK gene, A375; assay: Gene expression by qRT-PCR; type: cell-based, human; conditions: 1 μM, mean 2^∆∆Ct, DMSO 5.200
Description: (§1) Apoptosis at the cellular level can be initiated through the mitochondrial intrinsic pathway, which involves the Bcl-2 family of genes that includes the anti-apoptotic Bcl-XL and Bcl-2, as well as the pro-apoptotic Bak and Bax members; the balance between the expressions of anti- and pro-apoptotic proteins ensures physiological cell death. In cancers, the alterations occurring in gene expressions due to down- or up-regulations may result in delayed apoptosis and malignant proliferation. Thus, active compounds that modify the abnormal expression of genes involved in the apoptotic process may successfully act as anticancer agents. We tested the effect of compounds 4 and 6 on the expression of anti-apoptotic (Bcl-XL and Bcl-2) and pro-apoptotic (Bak and Bax) genes (Table 4, Figure 8).
(§2) Total RNA was extracted using peqGold RNAPureTM Package (Peqlab Biotechnology GmbH, Erlangen, Germany) according to the manufacturer’s instructions, and a DS-11 spectrophotometer (DeNovix, Wilmington, DE, USA) was used to measure total concentration of RNA. Reverse transcription was performed using the Maxima® First Strand cDNA Synthesis Kit (Fermentas, St. Leon-Rot, Germany), and the mix was incubated in the Tadvanced biometra product line (Analytik Jena AG, Jena, Germany) with a thermal program of 25 °C for 10 min, 85 °C for 5 min. Quantitative real-time PCR was conducted in a Quant Studio 5 real-time PCR system, (Thermo Fisher Scientific, Inc., Waltham, MA, USA), with analysis being performed in 20 µL reactions containing Power SYBR-Green PCR Master Mix (Thermo Fisher Scientific, Inc.). Cycling conditions were: 95 °C for 10 s followed by 40 cycles of denaturing at 95 °C for 15 s, and annealing and extension at 60 °C for 1 min.

[4] = system: Bcl-2 gene, RPMI; assay: Gene expression by qRT-PCR; type: cell-based, human; conditions: 1 μM, mean 2^∆∆Ct, DMSO 4.063
Description: as §1, §2

[5] = system: BAX gene, A375; assay: Gene expression by qRT-PCR; type: cell-based, human; conditions: 1 μM, mean 2^∆∆Ct, DMSO 4.063
Description: as §1, §2

[6] = system: Bcl-2 gene, SK-Mel-28; assay: Gene expression by qRT-PCR; type: cell-based, human; conditions: 1 μM, mean 2^∆∆Ct, DMSO 2.573
Description: as §1, §2

[7] = system: EKVX; assay: NCI-60 screening (SRB); type: cell-based, human; conditions: five-dose
[8] = system: A549/ATCC; assay: NCI-60 screening (SRB); type: cell-based, human; conditions: five-dose
[9] = system: SW-620; assay: NCI-60 screening (SRB); type: cell-based, human; conditions: five-dose
[10] = system: LOX IMVI; assay: NCI-60 screening (SRB); type: cell-based, human; conditions: LOX IMVI, five-dose
[11] = system: SF-295; assay: NCI-60 screening (SRB); type: cell-based, human; conditions: five-dose
[12] = system: NCI/ADR-RES; assay: NCI-60 screening (SRB); type: cell-based, human; conditions: five-dose
[13] = system: Prostate cancer; assay: NCI-60 screening (SRB), subpanel; type: cell-based
How it was run: (§3)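 Cell growth was estimated by sulforhodamine B protein binding after a 48 h exposure. Negative growth values denote cell kill. Selectivity index is full-panel MG_MID60 divided by subpanel MG_MID, both in μM.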

[14] = system: NSC lung cancer; assay: NCI-60 screening (SRB), subpanel; type: cell-based
How it was run: as §3

[15] = system: Renal Cancer; assay: NCI-60 screening (SRB), subpanel; type: cell-based
How it was run: as §3

[16] = system: Colon Cancer; assay: NCI-60 screening (SRB), subpanel; type: cell-based
How it was run: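 48 h incubation with compound; SRB protein dye end point; % growth vs untreated ctrl. GI50, TGI, LC50 per line; MG_MID = subpanel mean, insensitive lines set to top tested conc.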

[17] = system: Leukemia; assay: NCI-60 screening (SRB), subpanel; type: cell-based
How it was run: as §3

[18] = system: Ovarian cancer; assay: NCI-60 screening (SRB), subpanel; type: cell-based
How it was run: as §3

[19] = Homo sapiens, read-out: LC50 (the source's name)

CCN1CCN(C(=O)[C@]23CCC(C)(C)C[C@H]2C2=CC[C@@H]4[C@@]5(C)C/C(=C/c6cccnc6)C(=O)C(C)(C)[C@@H]5CC[C@@]4(C)[C@]2(C)CC3)CC1 [Compound 6] was tested, and the GI50 ([1]; Homo sapiens) was 1.61 µM, the CC50 [1, 19] was 8.73 µM and the TGI [1] was 3.75 µM. The GI50 ([2]; Homo sapiens) was 1.4 µM, the CC50 [2, 19] was 5.78 µM and the TGI [2] was 2.84 µM. The “Expression of BAK gene, Mean” value [3] was 0.516 ***, the “Expression of Bcl-2 gene, Mean” value [4] was 0.236 *** and the “Expression of BAX gene, Mean” value [5] was 0.590 ***. For the same compound, the “Expression of Bcl-2 gene, Mean” value [6] was 0.083 **, the GI50 ([7]; Homo sapiens) was 1.9 µM and the LC50 ([7]; Homo sapiens) was 43.5 µM. The TGI [7] was 6.48 µM, the GI50 ([8]; Homo sapiens) was 2.62 µM and the CC50 [8, 19] was over 100 µM. It also gave a TGI [8] of 13.4 µM, a GI50 ([9]; Homo sapiens) of 1.78 µM and a CC50 [9, 19] of 8.46 µM. For the same compound, the TGI [9] was 3.88 µM, the GI50 ([10]; Homo sapiens) was 1.36 µM and the CC50 [10, 19] was 5.45 µM. For the same compound, the TGI [10] was 2.73 µM, the GI50 ([11]; Homo sapiens) was 1.66 µM and the CC50 [11, 19] was 5.97 µM. For the same compound, the TGI [11] was 3.15 µM, the GI50 ([12]; Homo sapiens) was 1.57 µM and the CC50 [12, 19] was 7.6 µM. It also gave a TGI [12] of 3.46 µM, a GI50 ([13]; Homo sapiens, Prostate cancer subpanel, five-dose, read-out: GI50 MG_MID) of 1.42 µM and a CC50 ([13]; Homo sapiens, Prostate cancer subpanel, five-dose, read-out: LC50 MG_MID) of 8.01 µM. The “TGI MG_MID” value ([13]; Prostate cancer subpanel, five-dose) was 3.34 µM, the “SI (TGI)” value ([13]; Prostate cancer, MG_MID60/subpanel MG_MID) was 1.89 and the GI50 ([14]; Homo sapiens, NSC lung cancer subpanel, five-dose, read-out: GI50 MG_MID) was 1.91 µM. The CC50 ([14]; Homo sapiens, NSC lung cancer subpanel, five-dose, read-out: LC50 MG_MID) was 29.7 µM, the “TGI MG_MID” value ([14]; NSC lung cancer subpanel, five-dose) was 5.83 µM and the “SI (TGI)” value ([14]; NSCL cancer, MG_MID60/subpanel MG_MID) was 1.08. The GI50 ([15]; Homo sapiens, Renal cancer subpanel, five-dose, read-out: GI50 MG_MID) was 1.97 µM, the LC50 (50% net cell kill) ([15]; Homo sapiens, Renal cancer subpanel, five-dose, read-out: LC50 MG_MID) was 20.2 µM and the “SI (TGI)” value ([15]; Renal Cancer, MG_MID60/subpanel MG_MID) was 0.96. For the same compound, the “TGI MG_MID” value ([15]; Renal cancer subpanel, five-dose) was 6.54 µM, the “TGI MG_MID” value ([16]; Colon Cancer subpanel, five-dose) was 3.51 µM and the “SI (TGI)” value ([16]; Colon Cancer, MG_MID60/subpanel MG_MID) was 1.99. The GI50 ([16]; Homo sapiens, Colon Cancer subpanel, five-dose, read-out: GI50 MG_MID) was 1.52 µM, the CC50 ([16]; Homo sapiens, Colon Cancer subpanel, five-dose, read-out: LC50 MG_MID) was 25.4 µM and the CC50 ([17]; Homo sapiens, Leukemia subpanel, five-dose, read-out: LC50 MG_MID) was over 100 µM. The “TGI MG_MID” value ([17]; Leukemia subpanel, five-dose) was 5.10 µM, the “SI (TGI)” value ([17]; Leukemia, MG_MID60/subpanel MG_MID) was 0.30 and the GI50 ([18]; Homo sapiens, Ovarian cancer subpanel, five-dose, read-out: GI50 MG_MID) was 2.15 µM. The CC50 ([18]; Homo sapiens, Ovarian cancer subpanel, five-dose, read-out: LC50 MG_MID) was 36.2 µM, the “SI (TGI)” value ([18]; Ovarian Cancer, MG_MID60/subpanel MG_MID) was 1.52 and the “TGI MG_MID” value ([18]; Ovarian cancer subpanel, five-dose) was 4.14 µM.
